From patent US11931322B2, “Solubilizate with curcumin and optionally at least one other active substance” (priority 2017, dated 2024)

What was measured:
Assay type in all cases: in vivo, Wistar rats
[1] = test system: thiobarbituric acid reactive substances (TBARS); test: Thiobarbituric acid reactive substances (TBARS) in the serum of arthritic rats; settings: for TBARS: serum of arthritic rats, n=8, mean ± SEM
Protocol: (§1) Prof. Dr. […] from the University of Cairo, Faculty of Pharmacy at the Institute for Pharmacology, performed studies on the anti-inflammatory effect of curcumin and combinations of curcumin with Boswellia or xanthohumol, in each case in the native form and in the solubilized form according to the disclosure. Anti-inflammatory markers and antioxidant capacity were determined. Female Wistar rats with a body weight between 150 and 200 g were exposed to adjuvant induced arthritis according to Pearson et al. (1956). At day 0, the animals were administered 0.1 ml of Freund's Adjuvant (FCA) in the right hind paw, by subplantar injection. The animals were randomly divided into 12 groups of 8 animals each. All extracts or solubilizates were administered orally once daily from day 0 to day 21 following the vaccination with the adjuvant. After day 21, the animals were killed and serum samples were prepared and stored at -80° C. Measurements were made of myeloperoxidase (MPO), C-reactive protein (CRP), total antioxidant capacity (TAC), and thiobarbituratic acid reactive substances (TBARS). Oxidative stress is one of the major factors contributing to joint destruction in rheumatoid arthritis (RA). An increase in the production of so-called “reactive oxygen species (ROS)” leads to a reduced supply of endogenous antioxidants and ultimately results in the destruction of cells. The neutrophil granulocytes released in the rheumatoid joint produce free oxygen radicals which cause increased formation of lipid peroxides manifesting in an increase in serum TBARS. Therefore, an increase in antioxidant status represented by an increase in TAC can be used as an indication of protection against the development of degenerative inflammatory processes. There is an inverse relationship between the levels of TAC and TBARS, a high level of antioxidant capacity TAC corresponds to a low TBARS concentration. The table contains data on the effect of curcumin and Boswellia in native and in solubilized form, administered either alone or in combination with diclofenac in a dose of 3 mg per kg body weight once daily for 21 days, on the antioxidant capacity TAC and the thiobarbituric acid reactive substances TBARS in the serum of arthritic rats (n=8). Indicated are mean values±standard error of the mean (SEM).

[2] = test system: total antioxidant capacity (TAC); test: Total antioxidant capacity (TAC) in the serum of arthritic rats; settings: for TAC: serum of arthritic rats, n=8, mean ± SEM
Protocol: as §1

C-reactive protein (CRP) = test: Serum C-reactive protein (CRP) in adjuvant-induced arthritic rats; settings: 5 and 10 mg/kg, FIG. 1a
Protocol: (§2) Prof. Dr. […] from the University of Cairo, Faculty of Pharmacy at the Institute for Pharmacology, performed studies on the anti-inflammatory effect of curcumin and combinations of curcumin with Boswellia or xanthohumol, in each case in the native form and in the solubilized form according to the disclosure. Anti-inflammatory markers and antioxidant capacity were determined. Female Wistar rats with a body weight between 150 and 200 g were exposed to adjuvant induced arthritis according to Pearson et al. (1956). At day 0, the animals were administered 0.1 ml of Freund's Adjuvant (FCA) in the right hind paw, by subplantar injection. The animals were randomly divided into 12 groups of 8 animals each. Group 1 was the control group. Group 2 received diclofenac as a reference drug in a dose of 3 mg/kg body weight. Group 3 received native curcumin in a dose of 5 mg/kg body weight. Group 4 received curcumin solubilized according to the disclosure in a dose of 5 mg/kg body weight. Group 5 received native curcumin in a dose of 10 mg/kg body weight, and Group 6 received curcumin solubilized in the same dose. Group 7 received native xanthohumol in a dose of 5 mg/kg body weight, and Group 8 received solubilized xanthohumol in the same dose. Group 9 received a mixture of native curcumin in a dose of 5 mg/kg body weight and native Boswellia extract in a dose of 10 mg/kg body weight. […]

myeloperoxidase (MPO) = test: Serum myeloperoxidase (MPO) in adjuvant-induced arthritic rats; settings: both dosages (5 and 10 mg/kg), FIG. 2
Protocol: as §2

[3] = 10 mg/kg once daily for 21 days
[4] = arthritic rats, both dosages considered

| Compound | TBARS ([1]; 3 mg/kg once daily for 21 days) [nmol/L] | TAC ([2]; 3 mg/kg once daily for 21 days) [nmol/µL] | TBARS ([1]; 5 mg/kg once daily for 21 days) [nmol/L] | TBARS [1, 3] [nmol/L] | effect on the TBARS level (in words) [1, 4] | TAC ([2]; 5 mg/kg once daily for 21 days) [nmol/µL] | TAC [2, 3] [nmol/µL] | effect on TAC (in words) [2, 4] | effect on rat serum CRP levels (in words) (C-reactive protein (CRP)) | effect on MPO concentration (in words) (myeloperoxidase (MPO)) |
| --- | --- | --- | --- | --- | --- | --- | --- | --- | --- | --- |
| O=C(O)Cc1ccccc1Nc1c(Cl)cccc1Cl [Diclofenac, diclofenac] | 7.93 ± 0.84 | 82.08 ± 2.96 |  |  |  |  |  |  |  |  |
| COc1cc(/C=C/C(=O)CC(=O)/C=C/c2ccc(O)c(OC)c2)ccc1O [Native curcumin, curcumin] |  |  | 11.64 ± 0.39 | 13.18 ± 0.46 | no significant effect | 60.31 ± 3.25 | 68.41 ± 1.09 | no significant effect | inhibited rat serum CRP levels in a dose-dependent manner | no effect on the MPO levels |
